From patent US20170105999A1, “METHOD FOR TREATING DRUG RESISTANT CANCER” (NATIONAL YANG MING UNIVERSITY, priority 2014, published 2017)

Assays:
CL141 = assay: Clonogenic assay; type: cell-based; details: CL141, adenocarcinoma
Excerpt: […] […] After the treatments, cells were washed with PBS, and the colonies were fixed with fix solution (methanol: acetic acid=3:1) and stained with 0.5% crystal violet in methanol. After removing the crystal violet carefully and rinse with tap water, the colonies were counted manually.

CL97 [1] = assay: Tumor spheroid (sphere formation) assay; type: cell-based
HT29 = assay: Tumor spheroid (sphere formation) assay; type: cell-based; details: HT29, colorectal adenocarcinoma
U87MG = assay: Tumor spheroid (sphere formation) assay; type: cell-based; details: brain cancer
CL141 spheres = assay: Cytotoxicity at sphere cells, Trypan Blue Exclusion method; type: cell-based; details: read-out: IC50 for prochlorperazine metabolites
CL152 spheres = assay: as above; type: cell-based; details: read-out: IC50 for prochlorperazine metabolites
NSCLC cell lines [2] = details: conclusion in words
Procedure: Cells were plated in 96-well plates at a density of 2000 cells per well in triplicate. The cells were treated on the third day (to ensure proper plating efficiency and vitality) to indicated agents for 48 hrs. […] Cytotoxicity was assessed using the sulforhodamine B (SRB) assay (23). Briefly, the medium was discarded, and the adherent cells were fixed by 100 μl of cold 10% trichioroacetic acid (w/v) in each well for 1 h at 4° C. After fixation, cells were stained with 100 μl/well of 0.4% (w/v, in 1% acetic acid) SRB solution for 30 min at room temperature, and then washed 5 times with 1% acetic acid. After air-drying, 100 μl of 10 mM Tris base was added to each well and the absorbance was read at 530 nm. Cytotoxicity is expressed as the percent of cells in drug treated wells relative to number of cells in the solvent only control (set to 100%). Each experiment was performed independently at least 2 times in triplicate and cytotoxicity is given as means ±SD.
(§1) A549, A549-ON, CL97, CL141, HCC827, and H441 were lung adenocarcinoma cell lines. CL152, H2170, and H226 were squamous cell carcinoma cell lines. Cell viability was determined by SRB assay. […] To determine whether side population (SP) cells, which represent a cell population with CSC characteristics, exist in NSCLC cell lines, we stained the cells with the fluorescent dye, Hoechst 33342, and analyzed the cells with flow cytometry.

A549 cells = assay: Senescence, β-galactosidase (SA-β-Gal) activity; type: cell-based; details: A549, 24 hours; 1 μM prochlorperazine, 50 μM resveratrol as positive control
Excerpt: EMT also plays a critical role in the regulation of cancer sternness. EMT is characterized by enhanced cell migration and invasion.

NCI-H441 = assay: Subcutaneous NCI-H441 tumor in NOD/SCID mice; type: in vivo; details: 5 mg/kg, 5 days/week, i.p.; four weeks post treatment; vs vehicle, p<0.01
Procedure: In the first trial, human lung cancer cell line NCI-H441 (purchased from ATCC, 1 million cells/injection) cells were subcutaneously injected into the right flank of NOD/SCID mice (female, 4-6 weeks old). […] Over the period of 4 weeks, tumorigenesis in both groups was measured using a caliper on a weekly basis. The change in tumor size was expressed as in fold change and plotted over time.
In the first trial (FIG. 3A), NCI-H441 (1×10^6 cells/injection) cells were subcutaneously injected into the right flank of NOD/SCID mice (female, 4-6 weeks old).

CL97 [3] = assay: CL97 (adenocarcinoma) tumor-bearing NOD/SCID mice, standard regimen combination; type: in vivo
CL152 [4] = assay: CL152 (squamous) tumor-bearing NOD/SCID mice, standard regimen combination; type: in vivo
[5] = test system: lung adenocarcinoma with EGFR-L858R mutation; assay: Case study, lung adenocarcinoma patient; type: in vivo, human; details: person; prochlorperazine along with pemetrexed; last followed-up CT
[6] = test system: signet ring cell carcinoma; assay: Case study, signet ring cell carcinoma patient; type: in vivo, human; details: person; prochlorperazine with several kinds of chemotherapy; last followed-up CT
NSCLC cell lines [7] = assay: Clonogenic assay in NSCLC cell lines; type: cell-based; details: different concentration of prochlorperazine
Procedure: Tested cells were seeded respectively in 6 well plates with 10^4 cells per well for 14 days. […] After removing the crystal violet carefully and rinse with tap water, the colonies were counted manually.
as §1

NSCLC cells = assay: Side population analysis in NSCLC cells; type: cell-based; details: 48 hours of incubation at 2.5, 5 and 10 μM
Procedure: Single-cell suspensions of cells were detached from dishes with Trypsin-EDTA (Invitrogen) and suspended at 1×10^6 cells/mL in Hank's balanced salt solution ([…]) supplemented with 3% fetal calf serum and 10 mM Hepes. These cells were then incubated at 37° C. for 90 minutes with 20 μg/mL Hoechst 33342 (Sigma Chemical, St. Louis, Mo.). […] After 90 minutes incubation with indicated drugs, the cells were centrifuged immediately for 5 minutes at 300 g and 4° C. and resuspended in ice-cold HBSS, The cells were kept on ice to inhibit efflux of the Hoechst dye, and 1 μg/mL propidium iodide (PI, BD) were added to discriminate dead cells. Finally, these cells were filtered through a 40 μm cell strainer (BD) to obtain single-suspension cells. Cell dual-wavelength analysis and purification were performed on a dual-laser FACS Vantage SE (BD). Hoechst 33342 can be excited at 355 nm UV light and emitted blue fluorescence with a 450/20 band-pass (BP) filter and red fluorescence with a 675 nm edge filter long-pass (EFLP). […]
as §1, with “CL152, H2170, and H226 were squamous cell carcinoma cell lines.” left out

HCC827 = assay: Tumor spheroid (sphere formation) assay
Procedure: (§2) In brief, single cells were plated in 6-well ultralow attachment plates (Coming Inc.) at a density of 2,000 cells/mL in tumor spheroid culture medium, DMEM/F12 supplemented with 1% N2 Supplement (Invitrogen), 10 ng/mL basic fibroblast growth factor (Sigma-Aldrich), 10 ng/mL epidermal growth factor (Invitrogen) with 1% penicillin/streptomycin (Invitrogen) at 37° C. in a humidified atmosphere of 95% air and 5% CO2. Cells were cultured twice per week. When passaged, tumor spheres were harvested. Spheroids were dissociated with TrypLE™ (Invitrogen). Spheroids cell counting using the Trypan Blue Exclusion method.

CL152 [8] = assay: Tumor spheroid (sphere formation) assay
Procedure: as §2

Which Clonogenic assay (CL141) does the source give for CN1CCN(CCCN2c3ccccc3Sc3ccc(Cl)cc32)CC1 [prochlorperazine] here?
The Clonogenic assay was 5 to 10 µM.

What about the Sphere formation (CL97 [1]; CL97, adenocarcinoma) of the same compound?
Its Sphere formation is 0 to 2.5 µM.

And the number of spheres (CL97 [1]; CL97 sphere cells, 1, 2.5, 5 and 10 μM, 48 hours, concentration-dependent)?
Its number of spheres is “reduced the number of spheres”.

What about the “number of sphere cells, co-treatment” value (CL97 [1]; CL97 spheres, co-treatment with gefitinib vs gefitinib alone, 48 hours) of the same compound?
Its value is “significantly decreased the number of sphere cells”.

What about the Sphere formation (HT29) of the same compound?
Its Sphere formation is 0 to 2.5 µM.

What about the Sphere formation (U87MG) of the same compound?
The Sphere formation was 10 to 15 µM.

What about the IC50 (CL141 spheres) of the same compound?
The IC50 was < 5 µM.

What about the IC50 (CL152 spheres) of the same compound?
The IC50 was < 5 µM.

What about the “cytotoxic effects in NSCLC cells” value (NSCLC cell lines [2]) of the same compound?
Its value is “low or minimal cytotoxic effects”.

What about the “β-galactosidase activity (senescence)” value (A549 cells) of the same compound?
Its value is “increased β-galactosidase activity”.

What about the tumor growth (NCI-H441) of the same compound?
Its tumor growth is “effective in suppressing tumor growth”.

And the “tumor growth, prochlorperazine alone” value (CL97 [3]; 5 mg/kg)?
Its value is “could inhibit tumor growth”.

And the “tumor growth, standard treatment combined with prochlorperazine” value (CL97 [3]; 50 mg/kg pemetrexed + 3 mg/kg cisplatin + 5 mg/kg prochlorperazine)?
The value was “more significantly inhibitory effect of tumor growth than other treatments”.

And the “tumor growth, prochlorperazine alone” value (CL152 [4]; 5 mg/kg)?
The value was “could inhibit tumor growth”.

What about the “tumor growth, standard treatment combined with prochlorperazine” value (CL152 [4]; 60 mg/kg gemcitabine + 3 mg/kg cisplatin + 5 mg/kg prochlorperazine) of the same compound?
Its value is “more significantly inhibitory effect of tumor growth than other treatments”.

What about the “tumor and pleural effusion on CT” value [5] of the same compound?
Its value is “reduced significantly”.

And the “tumor on CT” value [6]?
The value was “tumor was stable”.

What about the “Clonogenicity of NSCLC cell lines” value (NSCLC cell lines [7]) of the same compound?
The value was “reduced in a concentration-dependent manner”.

What about the “proportion of SP cells” value (NSCLC cells) of the same compound?
The value was “dose-dependently decease”.

And the sphere-forming ability (HCC827; HCC827)?
Its sphere-forming ability is “suppressed the sphere-forming ability”.

What about the Sphere formation (HCC827; HCC827, adenocarcinoma) of the same compound?
The Sphere formation was 5 to 10 µM.

What about the “spheres number, combination with cisplatin” value (HCC827; HCC827, combination with cisplatin vs prochlorperazine or cisplatin alone) of the same compound?
The value was “lower spheres number”.

What about the Sphere formation (CL152 [8]; CL152, squamous cell carcinoma) of the same compound?
Its Sphere formation is 0 to 5 µM.

What about the “combination effect with gemcitabine, sphere-formation assay” value (CL152 [8]; CL152 spheres, in combination with gemcitabine) of the same compound?
The value was “synergistic effect”.
